In ChEMBL document CHEMBL3132761, “Construction of phenoxazine rings containing nitro and sulfonic acid groups leading to phenoxazine-3-sulfonamide derivatives: their evaluation as novel and potential insulin secretagogues” (Medchemcomm, 2014) one finds IC50, fold change (FC) and Activity data, which are given here for 1 compound.

Experiment [1] deals with Hepatocyte. The experiment in a line: Cytotoxicity against rat primary hepatocytes after 16 hrs. The format is cell-based.
Experiment [2] relates to Hepatocyte. The experiment in a line: Cytotoxicity against rat primary hepatocytes after 6 hrs. The format is cell-based.
The target in experiment [3] is T1, Peroxisome proliferator-activated receptor gamma (Homo sapiens) (UniProt P37231).
T1 sequence (whole entry): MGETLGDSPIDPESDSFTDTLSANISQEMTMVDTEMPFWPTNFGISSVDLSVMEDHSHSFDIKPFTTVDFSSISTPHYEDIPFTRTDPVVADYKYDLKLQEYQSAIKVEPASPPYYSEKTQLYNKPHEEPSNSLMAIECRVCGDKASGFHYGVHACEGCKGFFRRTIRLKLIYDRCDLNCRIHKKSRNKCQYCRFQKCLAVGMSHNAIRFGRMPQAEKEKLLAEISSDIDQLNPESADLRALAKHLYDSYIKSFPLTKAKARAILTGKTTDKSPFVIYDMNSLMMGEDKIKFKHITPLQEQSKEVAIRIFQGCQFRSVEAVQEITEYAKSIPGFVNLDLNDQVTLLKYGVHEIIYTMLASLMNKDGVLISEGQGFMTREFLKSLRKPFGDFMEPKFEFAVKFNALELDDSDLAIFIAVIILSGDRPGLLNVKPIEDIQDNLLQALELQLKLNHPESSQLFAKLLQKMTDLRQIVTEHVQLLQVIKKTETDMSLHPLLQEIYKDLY
The experiment in a line: Agonist activity at human GAL4-fused PPARgamma LBD expressed in HEK293T cells co-expressing DBD at 1 uM by luciferase based transactivation assay relative to control. The format is cell-based. Particulars: HEK-293T.

Experiment [4] has as its system Rattus norvegicus. The experiment in a line: Antidiabetic activity in streptozotocin-nicotinamide-induced diabetic model of Wistar albino rat assessed as granulated pancreatic islets with prominent hyperplasticity at 10 mg/kg, po administered for 14 days measured on day 14 relative to control. The format is functional, organism-based. Also noted: dose 10 mg/kg.
Experiment [5] has as its system Rattus norvegicus. The experiment in a line: Antidiabetic activity in Wistar albino rat assessed as reversal of diabetic-induced muscle wasting by measuring increase in body weight at 10 mg/kg, po administered for 14 days measured on day 14 relative to control. The format is functional.
Experiment [6] relates to Rattus norvegicus. The experiment in a line: Antidiabetic activity in Wistar albino rat assessed as reversal of diabetic-induced SGPT level in liver at 10 mg/kg, po administered for 14 days measured on day 14 relative to control. The format is functional.
Experiment [7] has as its system Rattus norvegicus. The experiment in a line: Antidiabetic activity in Wistar albino rat assessed as reversal of diabetic-induced SGOT level in liver at 10 mg/kg, po administered for 14 days measured on day 14 relative to control. In kind it is functional.
Experiment [8] concerns Rattus norvegicus. The experiment in a line: Hypolipidemic activity in Wistar albino rat assessed as reduction of serum triglyceride level at 10 mg/kg, po administered for 14 days measured on day 14 after 1 to 8 hrs relative to control. In kind it is functional.
In experiment [9] the test system is Rattus norvegicus. The experiment in a line: Hypolipidemic activity in Wistar albino rat assessed as reduction of total cholesterol level at 10 mg/kg, po administered for 14 days measured on day 14 after 1 to 8 hrs relative to control. In kind it is functional.
For experiment [10], the system named is Rattus norvegicus. The experiment in a line: Antidiabetic activity in streptozotocin-nicotinamide-induced diabetic model of Wistar albino rat assessed as reduction of blood glucose level at 10 mg/kg, po administered for 14 days measured on day 14 after 1 to 8 hrs relative to control. In kind it is functional.
In experiment [11] the test system is Rattus norvegicus. The experiment in a line: Antidiabetic activity in streptozotocin-nicotinamide-induced diabetic model of Wistar albino rat assessed as reduction of blood glucose level at 10 mg/kg, po administered for 14 days measured on day 7 after 1 to 8 hrs relative to control. In kind it is functional.
Experiment [12] concerns Rattus norvegicus. The experiment in a line: Antidiabetic activity in streptozotocin-nicotinamide-induced diabetic model of Wistar albino rat assessed as reduction of blood glucose level at 10 mg/kg, po after 8 hrs relative to control. In kind it is functional.
Experiment [13] relates to Rattus norvegicus. The experiment in a line: Antidiabetic activity in streptozotocin-nicotinamide-induced diabetic model of Wistar albino rat assessed as reduction of blood glucose level at 10 mg/kg, po after 6 hrs relative to control. In kind it is functional.
For experiment [14], the system named is Rattus norvegicus. The experiment in a line: Antidiabetic activity in streptozotocin-nicotinamide-induced diabetic model of Wistar albino rat assessed as reduction of blood glucose level at 10 mg/kg, po after 4 hrs relative to control. The format is functional.
For experiment [15], the system named is Rattus norvegicus. The experiment in a line: Antidiabetic activity in streptozotocin-nicotinamide-induced diabetic model of Wistar albino rat assessed as reduction of blood glucose level at 10 mg/kg, po after 2 hrs relative to control. The format is functional.
In experiment [16] the test system is Rattus norvegicus. The experiment in a line: Antidiabetic activity in streptozotocin-nicotinamide-induced diabetic model of Wistar albino rat assessed as reduction of blood glucose level at 10 mg/kg, po after 1 hr relative to control. The format is functional.
Experiment [17] has as its system Rattus norvegicus. The experiment in a line: Hypoglycemic activity in over night fasted Wistar albino rat assessed as reduction of blood glucose level at 10 mg/kg, po administered 30 mins before glucose challenge measured after 120 mins by intraperitoneal glucose tolerance test (reference value: 101.07 +/- 8.98 mg/dl). The format is functional.
For experiment [18], the system named is Rattus norvegicus. The experiment in a line: Hypoglycemic activity in over night fasted Wistar albino rat assessed as reduction of blood glucose level at 10 mg/kg, po administered 30 mins before glucose challenge measured after 90 mins by intraperitoneal glucose tolerance test (reference value: 94.44 +/- 6.99 mg/dl). In kind it is functional.
Experiment [19] has as its system Rattus norvegicus. The experiment in a line: Hypoglycemic activity in over night fasted Wistar albino rat assessed as reduction of blood glucose level at 10 mg/kg, po administered 30 mins before glucose challenge measured after 60 mins by intraperitoneal glucose tolerance test (reference value: 106.07 +/- 13.98 mg/dl). In kind it is functional.
For experiment [20], the system named is Rattus norvegicus. The experiment in a line: Hypoglycemic activity in over night fasted Wistar albino rat assessed as reduction of blood glucose level at 10 mg/kg, po administered 30 mins before glucose challenge measured after 30 mins by intraperitoneal glucose tolerance test (reference value: 109.28 +/- 20.53 mg/dl). In kind it is functional.
Experiment [21] deals with Rattus norvegicus. The experiment in a line: Hypoglycemic activity in 18 hrs fasted Wistar albino rat assessed as reduction of blood glucose level at 10 mg/kg, po after 6 hrs (reference value: 101.01 +/- 1.60 mg/dl). The format is functional.
The test system of experiment [22] is Rattus norvegicus. The experiment in a line: Hypoglycemic activity in 18 hrs fasted Wistar albino rat assessed as reduction of blood glucose level at 10 mg/kg, po after 4 hrs (reference value: 97.13 +/- 2.89 mg/dl). In kind it is functional.
For experiment [23], the system named is Rattus norvegicus. The experiment in a line: Hypoglycemic activity in 18 hrs fasted Wistar albino rat assessed as reduction of blood glucose level at 10 mg/kg, po after 2 hrs (reference value: 101.03 +/- 1.93 mg/dl). The format is functional.

The structures appear in SMILES notation. Activity calls are given as the source filed them. The rule behind the calls is not given here.

As for `O=[N+]([O-])c1cc(S(=O)(=O)Nc2ccc(O)cc2)cc2c1Nc1ccccc1O2`, the IC50 (as a rule, the concentration that gives 50% inhibition) in the experiment on Hepatocyte [1] was 274 µM; with Hepatocyte [2] it was 343 µM. For the same compound, the fold change (FC) in [3] is 15.5. Besides, in the experiment on Rattus norvegicus [4], the outcome was Active. In addition, the Activity came out at 242 g with Rattus norvegicus [5]; 44.8 U/dl in the experiment on Rattus norvegicus [6]; 47.2 U/dl in the experiment with Rattus norvegicus [7]; 63.2 mg/dL in the experiment with Rattus norvegicus [8]; 59.2 mg/dL in the experiment on Rattus norvegicus [9]; 145.6 mg/dL with Rattus norvegicus [10]. The Activity with Rattus norvegicus [11] is 165.8 mg/dL; with Rattus norvegicus [12] it was 161.4 mg/dL; in the experiment with Rattus norvegicus [13] it was 143.3 mg/dL; in the experiment on Rattus norvegicus [14], 131.4 mg/dL; with Rattus norvegicus [15] it was 116.4 mg/dL; with Rattus norvegicus [16] it was 158.6 mg/dL. Moreover, the Activity in the experiment on Rattus norvegicus [17] was 98.91 mg/dL; in the experiment on Rattus norvegicus [18] it was 78.1 mg/dL; with Rattus norvegicus [19], 95.4 mg/dL; with Rattus norvegicus [20], 102.43 mg/dL; with Rattus norvegicus [21] it was 66.14 mg/dL; in the experiment with Rattus norvegicus [22], 44.65 mg/dL. In the experiment with Rattus norvegicus [23], the Activity stood at 46.34 mg/dL.
